Assay results from US20250367229A1, “Treatment of Immune-Related Disorders, Kidney Disorders, Liver Disorders, Hemolytic Disorders, and Oxidative Stress-Associated Disorders Using NRH, NARH and Reduced Derivatives Thereof” (MitoPower LLC, priority 2021, published 2025).

What was measured:
[1] = Stability in human serum in vitro (absorbance over time); assay type: in vitro ADME; conditions: 100 μM, 37° C.
Description: Three blood samples were collected from healthy human donors with the same blood group in serum separator vacutainer gel tubes. The samples were centrifuged at 1,800 g to separate serum. The serum samples obtained were pooled together into a separate tube.
NR, NRH and NRH-triacetate (NRHTA) were initially dissolved in DMSO and then diluted with normal saline to obtain a 1 mM stock solution of each compound. 100 μL of stock solution was added to 900 μL of pooled serum to assess the stability of the test compound in human serum. 200 μL of saline with 1,800 μL of pooled serum was used to prepare a solution for blanking and as a reference measurement. The stock solutions were diluted in the pooled serum and normal saline to prepare 100 μM solutions of the test compounds.
In previous experiments, spectral scans between 190 nm and 1100 nm were performed to determine absorbance maxima for NR, NRH and NRHTA, which have maximal absorbance at 265 nm, 340 nm and 331 nm, respectively, in solution.
The stability of a test compound in human serum was determined by a change in the concentration of the compound as measured by a change in absorbance at the maximal absorbance wavelength for the compound as a function of time. The test compounds at 100 μM were incubated in human serum at 37° C. Absorbance measurements were made at 0 min (T0), 5 min, 30 min, 120 min, 240 min, 360 min and 1440 min (24 hr). The relative change in absorbance compared to T0 was plotted and used for statistical analysis. The analysis was performed in triplicates.

[2] = system: HEK293 cells; test: NADH/NAD+ ratio in H2O2-exposed HEK293 cells (NAD/NADH-Glo); assay type: cell-based; conditions: NRH at 100 and 1000 μM, NR at all tested concentrations (0.01-1000 μM)
Description: HEK293 cells were trypsinized and plated at a density of 60,000 cells per well. The cells were then treated with H2O2 (600 μM prepared with Dulbecco's Modified Eagle Medium [DMEM]) for 30 min. The media was then replaced with serum media (DMEM supplemented with 10% fetal bovine serum [FBS]) containing NRH or NR, and were incubated at 37° C. under 6% CO2 for 30 min or 6 hr. The cells were incubated with the following concentrations of NRH or NR: 0.01, 0.1, 1.0, 10, 100 and 1000 μM. NAD^+ and NADH levels at 30 min and 6 hr were estimated using the NAD/NADH-Glo Promega Bioluminescent assay. The results were expressed as fold change relative to the values obtained with untreated cells.

NC(=O)C1=CN([C@@H]2O[C@H](CO)[C@@H](O)[C@H]2O)C=CC1 [NRH, N-(β-D-ribofuranosyl)dihydronicotinamide]
compound remaining intact in human serum after 6 hr ([1]; 6 hr): Most of both NRH and NRH-triacetate remained intact
stability in human serum compared with NR ([1]; up to 24 hr, p<0.05): much more stable
NADH/NAD+ ratio in HEK293 cells exposed to H2O2 ([2]; 30 min of incubation): significantly increased
NADH/NAD+ ratio in HEK293 cells exposed to H2O2 ([2]; 6 hr of incubation): significantly increased
